Results from patent US8791155B2, “Chroman derivatives” (Edison Pharmaceuticals, Inc., priority 2003, dated 2014).

What was measured:
[1] = tested on: release of the leukotriene LTB4 from MPRO cell line; assay: LTB4 assay (competitive ELISA); format: cell-based; details: Mus musculus; 1 μM calcium ionophore A23187, 1 hour; read-out: EC50, inhibition of LTB4 production
Text: This procedure was used for measuring the release of the leukotriene LTB4 from a neutrophil cell line using a competitive ELISA technique.
• MPRO cell line (ATCC, Catalog #CRL-11422) • Calciumionophore (A23187) (Sigma, Catalog #C7522) • Nordihydroguaiaretic acid (NDGA) (BioMol, Catalog #E1101-0001) • Retinoic Acid (all-trans) (ATRA) (Sigma, Catalog #95152) • Sterile, tissue-culture treated 96-well plates (Corning, Catalog #3614) Materials for LTB4 ELISA • Precoated (Mouse Anti-Rabbit IgG) EIA 96 Well Strip Plates (Cayman, Catalog #400004) • Leukotriene B4 AChE Tracer (Cayman Catalog #420110) • Leukotriene B4 EIA Antiserum (Cayman Catalog #420112) • Ellman's Reagent (Cayman Catalog #400050) • EIA Buffer Concentrate (10×) (Cayman Catalog #400060) • Wash Buffer Concentrate (400×) (Cayman Catalog #400062) • Plastic plate covers (Cayman Catalog #400012) Procedure
A mouse promyelocytic cell line (MPRO) was used in this assay. These cells are committed immature neutrophils that can be differentiated into mature neutrophils by treatment with 10 μM all-trans retinoic acid for 72 hours
Following 72 hours of differentiation, cells were stimulated with 1 μM of a calcium ionophore (A23187) in the presence or absence of test compound or vehicle for 1 hour at 370 C. After this time, supernatant was removed from the cells and the LTB4 levels were determined following manufacturer's instructions, using a Leukotriene B4 EIA kit from Cayman (Cat #520111)
The negative controls were media samples from differentiated but unstimulated cells.
The compounds were screened at 5 concentrations in quadruplicate starting at 10 μM

[2] = tested on: IL-1β release from a mouse microglial cell line; assay: Interleukin-1β microglial cell assay (LPS / IFN gamma); format: cell-based; details: LPS (10 μg/ml) and IFN gamma (10 ng/ml), 24 hours, read-out: EC50, inhibition of IL-1 beta induction
Protocol: This assay measures the release of IL-1β from a mouse microglial cell line following an inflammatory challenge with LPS and interferon-gamma. The ability of test articles to inhibit microglial cell activation and IL-1β release is determined by co-incubation of the test article with the inflammatory challenge.
Mouse microglial cells were seeded in poly-D-lysine coated 96-well plates at a density of 10,000 cells/well and allowed to attach for 24 hours. Cells were stimulated by addition of LPS (10 μg/ml) and IFN gamma (10 ng/ml) in the presence or absence of test article. The cells were then incubated for 24 hours at 37° C., after which time the media was removed and used for cytokine determination as described below.
Viability of mouse microglial cells after exposure to the test article was determined using a fluorescent viability dye, Cell Tracker Green. Cell Tracker Green was used at a working concentration of 5 μM in 1×HBSS. Cells were washed once with HBSS (200 μl/well) and 100 μl Cell Tracker Green was added to each well. Cells were then incubated at 37° C. for 30 minutes, after which time the Cell Tracker was removed and the cells were washed once with HBSS (200 μl/well). 100 pl fresh HBSS was added to each well and the plate was read on a Fluoroskan plate reader using an excitation wavelength of 485 nm and an emission wavelength of 538 nm.
1. […]
• The Costar EIA Hi-binding plate was coated with capture antibody at 4 μg/ml. […] Each well was filled to the top, dispensed, and any remaining buffer was removed by inverting the plate and gently blotting against clean paper towels. • Non-specific binding sites were blocked by adding 300 μl of Blocking Buffer to each well, and after sealing incubating for at least 1 hour at room temperature. • After washing the plate was now ready for the samples. […] 100 μl of this Substrate Solution mixture was added to each well and the plate was incubated in the dark for 20 minutes at room temperature. • 50 μl of Stop Solution was added to each well, mixing was ensured by gently tapping. • Each plate was read with the Spectramax once at 450 nm. […]

Compound | EC50 [1] [nM] | EC50 [2] [nM]
C=CCSCc1c(O)c(C)c(C)c2c1CCC(C)(C)O2 [5-Allylsulfanylmethyl-2,2,7,8-tetramethyl-chroman-6-ol] | < 1000 | –
Cc1c(C)c2c(c(C)c1O)CCC(C)(C=C(Br)Br)O2 (centres unmarked) [2-(2,2-Dibromo-vinyl)-2,5,7,8-tetramethyl-chroman-6-ol] | < 1000 | –
Cc1c(O)cc2c(c1C)OC(C)(CC/C=C1\SC(=O)NC1=O)CC2 (centres unmarked) [5-[3-(6-Hydroxy-2,7,8-trimethyl-chroman-2-yl)-propylidene]-thiazolidine-2,4-dione] | – | ≤ 20000
COC(=O)c1ccc(-c2c(O)c(C)c(C)c3c2CCC(C)(C)O3)cc1 [4-(6-Hydroxy-2,2,7,8-tetramethyl-chroman-5-yl)-benzoic acid methyl ester] | < 1000 | –
CC1=NN(c2ccccc2)C(=O)C1C(CCC1(C)CCc2cc(O)c(C)c(C)c2O1)C1C(=O)N(c2ccccc2)N=C1C (centres unmarked) [1-(6-Hydroxy-2,7,8-trimethyl-chroman-2-yl)-3-bis-(5-methyl-2-phenyl-2,4-dihydro-pyrazol-3-one-4-yl)-propane] | – | ≤ 20000
